This is an account of results in PubChem BioAssay (NCI).

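Five compound concentrations were applied to cells in 96-well plates for 48 hours; endpoints were derived by simple linear interpolation of the resulting dose-response curve. Definition used: TGI = concentration required for complete inhibition of growth.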

Test systems include BT-549 breast; HCT-15 colon; M14 melanoma; MDA-MB-435; OVCAR-3 ovarian; U251 CNS; DLD-1 colon; DMS 114 small cell lung; DMS 273 small cell lung; HOP-18 NSCLC; KM20L2 colon; LXFL 529 NSCLC; M19-MEL melanoma; XF 498 CNS; SNB-78 CNS; RXF-631 renal.
Common to all, as to assay: growth of human tumour cells (NCI), 48 h

On to `O=C1C(Cl)=C(NCCF)C(=O)c2ncccc21`, for which the TGI in the assay with BT-549 breast is 2.99 µM; in the assay with HCT-15 colon it was 4.87 µM; in the assay with M14 melanoma it was 3.15 µM; with MDA-MB-435, 0.408 µM; in the assay on OVCAR-3 ovarian, 5.45 µM; in the assay with U251 CNS, 2.8 µM.
With `O=P1(Cc2ccccc2)c2ccccc2-c2ccccc21`, the TGI was 21.3 µM in the assay on BT-549 breast; above 100 µM with HCT-15 colon; 20.2 µM in the assay on M14 melanoma; 12.3 µM in the assay with MDA-MB-435; above 55.4 µM with OVCAR-3 ovarian; 70.5 µM in the assay with U251 CNS.
Consider `CN(C)N=Nc1ccc2[nH]c(=O)[nH]c2c1`, for which the TGI in the assay with BT-549 breast, in the assay with HCT-15 colon, in the assay on M14 melanoma, in the assay with MDA-MB-435, in the assay with OVCAR-3 ovarian and in the assay with U251 CNS was above 100 µM in each case.
As for `COC(=O)CCC(=O)N1CC1C` (configuration not stated), the TGI with DLD-1 colon, in the assay on DMS 114 small cell lung, in the assay with DMS 273 small cell lung, in the assay with HCT-15 colon, in the assay with HOP-18 NSCLC and in the assay on KM20L2 colon was above 100 µM throughout. Moreover, the TGI in the assay with LXFL 529 NSCLC, in the assay with M14 melanoma, in the assay with M19-MEL melanoma, in the assay with OVCAR-3 ovarian, in the assay on U251 CNS and with XF 498 CNS was above 100 µM in each case.
Consider `OC12CCC3(O)c4ccccc4C3C1c1ccccc12` (configuration not stated), for which the TGI in the assay with DMS 273 small cell lung, in the assay with HCT-15 colon, in the assay with HOP-18 NSCLC, in the assay on KM20L2 colon, in the assay on LXFL 529 NSCLC and in the assay with M14 melanoma was above 100 µM throughout. In addition, the TGI in the assay with M19-MEL melanoma, in the assay on SNB-78 CNS, in the assay with U251 CNS and in the assay on XF 498 CNS was above 100 µM in each case.
Take `CCOc1cc(-c2nc3cc(F)ccc3s2)ccc1O`: the TGI with BT-549 breast was determined as 30.2 µM; in the assay on HCT-15 colon, 29 µM; in the assay with M14 melanoma it was 33.4 µM; in the assay with MDA-MB-435 it was 33.8 µM; with OVCAR-3 ovarian it was 35 µM; with U251 CNS, 41.3 µM.
As for `CCn1c(CSc2nc(-c3ccccc3)c(-c3ccccc3)[nH]2)n[nH]c1=S`, the TGI with DLD-1 colon, with DMS 114 small cell lung, with DMS 273 small cell lung, in the assay with HCT-15 colon, with KM20L2 colon and with LXFL 529 NSCLC was above 100 µM each time. In addition, the TGI with M14 melanoma, in the assay with M19-MEL melanoma, in the assay on OVCAR-3 ovarian, in the assay on SNB-78 CNS, in the assay on U251 CNS and with XF 498 CNS was above 100 µM throughout.
For the compound `C=CCn1c(=N)/c(=C(\N)O)s/c1=C1/SC(=S)N(c2ccc(C)cc2)C1=O`, the TGI in the assay on HOP-18 NSCLC, in the assay on LXFL 529 NSCLC, in the assay with M19-MEL melanoma, in the assay on OVCAR-3 ovarian and in the assay with U251 CNS was above 100 µM in each case.
Regarding `C#C[C@]1(O)CC[C@H]2[C@@H]3CCC4=C/C(=N/OC(=O)c5cccc6c(=O)c7ccccc7[nH]c56)CCC4[C@H]3CC[C@@]21CC` (some centres not stated), the TGI in the assay with BT-549 breast is 87.8 µM; in the assay on HCT-15 colon, above 47.7 µM; with M14 melanoma it was above 100 µM; in the assay on MDA-MB-435 it was above 100 µM; in the assay with OVCAR-3 ovarian it was above 61.1 µM; in the assay with U251 CNS, above 100 µM.
As for `NC(N)=N/N=C/c1c(-c2cc([N+](=O)[O-])c(Cl)cc2Cl)nc2n1CCS2`, the TGI in the assay with BT-549 breast was 9.7 µM; in the assay on HCT-15 colon, above 100 µM; in the assay on M14 melanoma, above 100 µM; in the assay on MDA-MB-435 it was 74.3 µM; in the assay with OVCAR-3 ovarian it was above 100 µM; in the assay on U251 CNS, above 100 µM.
With `CC(=O)NC1C(OCc2ccccc2)OC(CO)C(O)C1OCC(=O)N[C@@H](C)C(=O)N[C@H](CCC(=O)NCCNc1ccc([N+](=O)[O-])c2[nH]c3ccccc3c(=O)c12)C(N)=O` (some centres not stated), the TGI is 46 µM in the assay on BT-549 breast; 44.9 µM in the assay on HCT-15 colon; above 100 µM with M14 melanoma; above 100 µM in the assay on MDA-MB-435; above 100 µM with OVCAR-3 ovarian; above 100 µM with U251 CNS.
Regarding `COc1cc(C2c3cc4c(cc3[C@@H](N(C)c3ccc(N(C)C)cc3)C3COC(=O)C23)OCO4)cc(OC)c1O` (some centres not stated), the TGI stood at 37.5 µM in the assay on DLD-1 colon; 2.24 µM in the assay on DMS 114 small cell lung; 19.5 µM with DMS 273 small cell lung; 25.7 µM with HCT-15 colon; 26.2 µM in the assay with HOP-18 NSCLC; 12.3 µM with LXFL 529 NSCLC. Further, the TGI in the assay on M14 melanoma turned out to be 14.5 µM; in the assay on M19-MEL melanoma it was 12.1 µM; in the assay with OVCAR-3 ovarian, 0.516 µM; in the assay on RXF-631 renal, 40.7 µM; with U251 CNS, 1.45 µM.
Regarding `COc1ccc2c(c1OC)C(=O)O[C@@H]2[C@H]1c2c(cc3c(c2OC)OCO3)CCN1C`, the TGI is above 100 µM in the assay with BT-549 breast; above 100 µM with HCT-15 colon; above 100 µM with M14 melanoma; 32.2 µM in the assay on MDA-MB-435; 49.9 µM in the assay on OVCAR-3 ovarian; above 100 µM in the assay on U251 CNS.
As for `CC1(C)OC2OC(COC(=O)c3ccc(C#N)cc3)C3OC(C)(C)OC3C2O1` (configuration not stated), the TGI with BT-549 breast, in the assay on HCT-15 colon, in the assay with M14 melanoma, in the assay with MDA-MB-435, with OVCAR-3 ovarian and in the assay on U251 CNS was above 75 µM each time.
For `N#Cc1c(-c2ccc([N+](=O)[O-])cc2)cc(-c2ccc(Nc3ccnc4cc(Cl)ccc34)cc2)nc1N`, the TGI is above 100 µM with BT-549 breast; 18.6 µM in the assay on HCT-15 colon; 41.9 µM with M14 melanoma; 17.5 µM with MDA-MB-435; 15.8 µM with OVCAR-3 ovarian; 2.82 µM with U251 CNS.
In the case of `COCOc1cc(OC)ccc1C/C(=N/O)C(=O)OC`, the TGI with BT-549 breast, in the assay on HCT-15 colon, with M14 melanoma, in the assay on MDA-MB-435, with OVCAR-3 ovarian and with U251 CNS was above 100 µM throughout.
For the compound `COc1cccc2cc(C(=O)NC34CC5CC(CC(C5)C3)C4)c(=N)oc12`, the TGI in the assay on BT-549 breast is above 100 µM; in the assay with HCT-15 colon it was above 100 µM; in the assay on M14 melanoma it was above 100 µM; in the assay with MDA-MB-435, above 100 µM; with OVCAR-3 ovarian it was above 73.2 µM; in the assay on U251 CNS it was above 100 µM.
